Values after ≈ are worked out from the molar mass of the structure shown.
Experiments:
Test in all cases: minimal inhibitory concentration, two-fold agar dilution
Format in all cases: cell-based
[1] = tested on: Acinetobacter calcoaceticus ATCC 15437; conditions: ATCC15437, Muller-Hinton agar, 37°C, 20 hours, read-out: MIC values against the standard strains
Outline: (§1)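 Compounds were serially diluted two-fold into Mueller-Hinton agar, and each plate was spot-inoculated with the test strain at 10⁷ CFU per ml. Plates were incubated at 37°C for 20 hours before MIC values were read.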

[2] = tested on: Bacillus cereus ATCC 11778; conditions: ATCC11778, Muller-Hinton agar, 37°C, 20 hours, read-out: MIC values against the standard strains
Outline: as §1

[3] = tested on: Bacillus megaterium ATCC 9885; conditions: Priestia megaterium, ATCC9885; Muller-Hinton agar; 37°C; 20 hours; read-out: MIC values against the standard strains
Outline: as §1

[4] = tested on: Citrobacter freundii ATCC 8090; conditions: ATCC8090, Muller-Hinton agar, 37°C, 20 hours, read-out: MIC values against the standard strains
Outline: as §1

[5] = tested on: Enterobacter aerogenes ATCC 29751; conditions: Klebsiella aerogenes, ATCC29751; Muller-Hinton agar; 37°C; 20 hours; read-out: MIC values against the standard strains
Outline: as §1

[6] = tested on: Enterobacter cloacae ATCC 27508; conditions: ATCC27508, Muller-Hinton agar, 37°C, 20 hours, read-out: MIC values against the standard strains
Outline: as §1

[7] = tested on: Escherichia coli ATCC 10536; conditions: ATCC10536, Muller-Hinton agar, 37°C, 20 hours, read-out: MIC values against the standard strains
Outline: as §1

[8] = tested on: Escherichia coli ATCC 25922; conditions: ATCC25922, Muller-Hinton agar, 37°C, 20 hours, read-out: MIC values against the standard strains
Outline: as §1

[9] = tested on: Klebsiella pneumoniae ATCC 10031; conditions: ATCC10031, Muller-Hinton agar, 37°C, 20 hours, read-out: MIC values against the standard strains
Outline: as §1

[10] = tested on: Micrococcus luteus ATCC 9341; conditions: ATCC9341, Muller-Hinton agar, 37°C, 20 hours, read-out: MIC values against the standard strains
Outline: as §1

[11] = tested on: Morganella morganii ATCC 8076h; conditions: ATCC8076H, Muller-Hinton agar, 37°C, 20 hours, read-out: MIC values against the standard strains
Outline: as §1

[12] = tested on: Proteus mirabilis ATCC 25933; conditions: ATCC25933, Muller-Hinton agar, 37°C, 20 hours, read-out: MIC values against the standard strains
Outline: as §1

[13] = tested on: Proteus vulgaris ATCC 6059; conditions: ATCC6059, Muller-Hinton agar, 37°C, 20 hours, read-out: MIC values against the standard strains
Outline: as §1

[14] = tested on: Providencia rettgeri ATCC 9250; conditions: ATCC9250, Muller-Hinton agar, 37°C, 20 hours, read-out: MIC values against the standard strains
Outline: as §1

[15] = tested on: Pseudomonas aeruginosa ATCC 10145; conditions: ATCC10145, Muller-Hinton agar, 37°C, 20 hours, read-out: MIC values against the standard strains
Outline: as §1

[16] = tested on: Pseudomonas aeruginosa ATCC 25619; conditions: ATCC25619, Muller-Hinton agar, 37°C, 20 hours, read-out: MIC values against the standard strains
Outline: as §1

[17] = tested on: Pseudomonas aeruginosa ATCC 27853; conditions: ATCC27853, Muller-Hinton agar, 37°C, 20 hours, read-out: MIC values against the standard strains
Outline: as §1

[18] = tested on: Salmonella typhimurium ATCC 14028; conditions: Salmonella enterica; Muller-Hinton agar; 37°C; 20 hours; read-out: MIC values against the standard strains
Outline: as §1

[19] = tested on: Serratia marcescens ATCC 27117; conditions: ATCC27117, Muller-Hinton agar, 37°C, 20 hours, read-out: MIC values against the standard strains
Outline: as §1

[20] = tested on: Shigella flexneri ATCC 11836; conditions: ATCC11836, Muller-Hinton agar, 37°C, 20 hours, read-out: MIC values against the standard strains
Outline: as §1

[21] = tested on: Shigella sonnei ATCC 11060; conditions: ATCC11060, Muller-Hinton agar, 37°C, 20 hours, read-out: MIC values against the standard strains
Outline: as §1

[22] = tested on: Staphylococcus aureus ATCC 10537; conditions: ATCC10537, Muller-Hinton agar, 37°C, 20 hours, read-out: MIC values against the standard strains
Outline: as §1

[23] = tested on: Staphylococcus aureus ATCC 6538p; conditions: ATCC6538P, Muller-Hinton agar, 37°C, 20 hours, read-out: MIC values against the standard strains
Outline: as §1

[24] = tested on: Staphylococcus epidermidis ATCC 12228; conditions: ATCC12228, Muller-Hinton agar, 37°C, 20 hours, read-out: MIC values against the standard strains
Outline: as §1

[25] = tested on: Streptococcus faecalis ATCC 29212; conditions: Enterococcus faecalis, ATCC29212; Muller-Hinton agar; 37°C; 20 hours; read-out: MIC values against the standard strains
Outline: as §1

Compound	MIC [1] [mg/L]	MIC [2] [mg/L]	MIC [3] [mg/L]	MIC [4] [mg/L]	MIC [5] [mg/L]	MIC [6] [mg/L]	MIC [7] [mg/L]	MIC [8] [mg/L]	MIC [9] [mg/L]	MIC [10] [mg/L]	MIC [11] [mg/L]	MIC [12] [mg/L]	MIC [13] [mg/L]	MIC [14] [mg/L]	MIC [15] [mg/L]	MIC [16] [mg/L]	MIC [17] [mg/L]	MIC [18] [mg/L]	MIC [19] [mg/L]	MIC [20] [mg/L]	other results
CO/N=C(\C(=O)N[C@@H]1C(=O)N2C(C(=O)[O-])=C(CSc3nc(N)c(N)c(N)[n+]3C)CS[C@H]12)c1csc(N)n1 [Example 7, 7-[(Z)-2-(2-aminothiazol-4-yl)-2-(methoxyimino)acetamido]-3-(4,5,6-triamino-1-methylpyrimidinium-2-yl)thiomethyl-3-cephem-4-carboxylate]	4 (≈ 7.06 µM)	16 (≈ 28.2 µM)	0.13 (≈ 0.229 µM)	0.063 (≈ 0.111 µM)	≤ 0.008	0.063 (≈ 0.111 µM)	0.063 (≈ 0.111 µM)	0.063 (≈ 0.111 µM)	0.016 (≈ 0.0282 µM)	0.063 (≈ 0.111 µM)	≤ 0.008	0.13 (≈ 0.229 µM)	0.13 (≈ 0.229 µM)	≤ 0.008	32 (≈ 56.5 µM)	4 (≈ 7.06 µM)	32 (≈ 56.5 µM)	0.13 (≈ 0.229 µM)	0.13 (≈ 0.229 µM)	0.031 (≈ 0.0547 µM)	MIC [21]: 0.13 mg/L (≈ 0.229 µM); MIC [22]: 0.13 mg/L (≈ 0.229 µM); MIC [23]: 0.13 mg/L (≈ 0.229 µM); MIC [24]: 0.13 mg/L (≈ 0.229 µM); MIC [25]: 128 mg/L (≈ 226 µM)
CO/N=C(\C(=O)N[C@@H]1C(=O)N2C(C(=O)[O-])=C(CSc3nc(N)cc[n+]3C)CS[C@H]12)c1csc(N)n1 [Example 8, 7-[(Z)-2-(2-aminothiazol-4-yl)-2-(methoxyimino)acetamido]-3-(4-amino-1-methylpyrimidinium-2-yl)thiomethyl-3-cephem-4-carboxylate]	8 (≈ 14.9 µM)	64 (≈ 119 µM)	0.13 (≈ 0.242 µM)	0.063 (≈ 0.117 µM)	≤ 0.008	≤ 0.008	0.063 (≈ 0.117 µM)	0.063 (≈ 0.117 µM)	0.016 (≈ 0.0298 µM)	0.13 (≈ 0.242 µM)	≤ 0.008	0.25 (≈ 0.466 µM)	0.25 (≈ 0.466 µM)	≤ 0.008	64 (≈ 119 µM)	8 (≈ 14.9 µM)	64 (≈ 119 µM)	0.25 (≈ 0.466 µM)	0.25 (≈ 0.466 µM)	0.063 (≈ 0.117 µM)	MIC [21]: 0.13 mg/L (≈ 0.242 µM); MIC [22]: 0.25 mg/L (≈ 0.466 µM); MIC [23]: 0.5 mg/L (≈ 0.932 µM); MIC [24]: 0.13 mg/L (≈ 0.242 µM); MIC [25]: 64 mg/L (≈ 119 µM)
C[n+]1c(SCC2=C(C(=O)[O-])N3C(=O)[C@@H](NC(=O)/C(=N\O)c4csc(N)n4)[C@H]3SC2)nc(N)c(N)c1N [Example 9, 7-[(Z)-2-(2-aminothiazol-4-yl)-2-oxyiminoacetamido]-3-(4,5,6-triamino-1-methylpyrimidinium-2-yl)thiomethyl-3-cephem-4-carboxylate]	0.13 (≈ 0.235 µM)	16 (≈ 29 µM)	0.063 (≈ 0.114 µM)	0.016 (≈ 0.029 µM)	0.016 (≈ 0.029 µM)	≤ 0.008	0.031 (≈ 0.0561 µM)	0.031 (≈ 0.0561 µM)	0.031 (≈ 0.0561 µM)	0.031 (≈ 0.0561 µM)	≤ 0.008	0.031 (≈ 0.0561 µM)	0.063 (≈ 0.114 µM)	≤ 0.008	128 (≈ 232 µM)	64 (≈ 116 µM)	128 (≈ 232 µM)	0.25 (≈ 0.452 µM)	0.25 (≈ 0.452 µM)	0.063 (≈ 0.114 µM)	MIC [21]: 0.25 mg/L (≈ 0.452 µM); MIC [22]: 0.13 mg/L (≈ 0.235 µM); MIC [23]: 0.25 mg/L (≈ 0.452 µM); MIC [24]: 0.063 mg/L (≈ 0.114 µM); MIC [25]: 2 mg/L (≈ 3.62 µM)
C[n+]1ccc(N)nc1SCC1=C(C(=O)[O-])N2C(=O)[C@@H](NC(=O)/C(=N\O)c3csc(N)n3)[C@H]2SC1 [Example 10, 7-[(Z)-2-(2-aminothiazol-4-yl)-2-oxyiminoacetamido]-3-(4-amino-1-methylpyrimidinium-2-yl)thiomethyl-3-cephem-4-carboxylate]	0.063 (≈ 0.121 µM)	32 (≈ 61.2 µM)	0.13 (≈ 0.249 µM)	0.063 (≈ 0.121 µM)	0.063 (≈ 0.121 µM)	0.016 (≈ 0.0306 µM)	0.25 (≈ 0.478 µM)	0.25 (≈ 0.478 µM)	0.25 (≈ 0.478 µM)	0.25 (≈ 0.478 µM)	0.016 (≈ 0.0306 µM)	0.25 (≈ 0.478 µM)	1 (≈ 1.91 µM)	≤ 0.008	> 128	128 (≈ 245 µM)	> 128	0.5 (≈ 0.957 µM)	0.5 (≈ 0.957 µM)	0.016 (≈ 0.0306 µM)	MIC [21]: 1 mg/L (≈ 1.91 µM); MIC [22]: 0.25 mg/L (≈ 0.478 µM); MIC [23]: 0.5 mg/L (≈ 0.957 µM); MIC [24]: 0.063 mg/L (≈ 0.121 µM); MIC [25]: 8 mg/L (≈ 15.3 µM)
CC[n+]1c(SCC2=C(C(=O)[O-])N3C(=O)[C@@H](NC(=O)/C(=N\OC(C)(C)C(=O)O)c4csc(N)n4)[C@H]3SC2)nc(N)c(N)c1N [Example 11, 7-[(Z)-2-(2-aminothiazol-4-yl)-2-(carboxyprop-2-oxyimino)acetamido]-3-(4,5,6-triamino-1-ethylpyrimidinium-2-yl)thiomethyl-3-cephem-4-carboxylate]	8 (≈ 12.3 µM)	128 (≈ 196 µM)	0.13 (≈ 0.199 µM)	0.13 (≈ 0.199 µM)	2 (≈ 3.06 µM)	0.031 (≈ 0.0475 µM)	0.031 (≈ 0.0475 µM)	0.063 (≈ 0.0965 µM)	0.063 (≈ 0.0965 µM)	0.13 (≈ 0.199 µM)	≤ 0.008	0.25 (≈ 0.383 µM)	0.25 (≈ 0.383 µM)	0.063 (≈ 0.0965 µM)	8 (≈ 12.3 µM)	2 (≈ 3.06 µM)	4 (≈ 6.13 µM)	1 (≈ 1.53 µM)	1 (≈ 1.53 µM)	0.063 (≈ 0.0965 µM)	MIC [21]: 1 mg/L (≈ 1.53 µM); MIC [22]: 2 mg/L (≈ 3.06 µM); MIC [23]: 4 mg/L (≈ 6.13 µM); MIC [24]: 2 mg/L (≈ 3.06 µM); MIC [25]: > 128 mg/L

Source: EP0584797A2, “Novel cephalosporin compounds and processes for the preparation thereof” (LUCKY LTD., priority 1992, dated 1994)
